Peptide text beside a SMILES is read from it.
What was measured:
[1] = tested on: transfectoma cell line which is an SP2/0 derived line engineered to produce an anti-cytokine monoclonal antibody (mAb); assay: Effect of Gly-Lys-Gly on growth and productivity of a transfectoma cell line in MET1.5 shaker flask culture; assay type: cell-based; conditions: for viable cell density: unsupplemented control 2.0×10^6
Experimental: Two preparations of the tri-peptide, Gly-L-Lys-Gly, were compared for their effect on growth and productivity of a transfectoma cell line which is an SP2/0 derived line engineered to produce an anti-cytokine monoclonal antibody (mAb). The final lot of GKG prepared in Example V was compared to commercial prepared GKG purchased from Bachem (King of Prussia, Pa.).
Cells were cultured in a proprietary defined medium, MET1.5, supplemented with 7.0 mM glutamine, 10 g/L MHX, and 2.0 g/L sodium bicarbonate. The Centocor-made GKG peptide in quantities of 0.35 g/L, 0.70 g/L, and 1.40 g/L were added to 250 mL of MET 1.5 media. The GKG from Bachem was added to 250 mL of MET 1.5 media at concentrations of 0.38 g/L, 0.76g/L, and 1.5 g/L. The cells were cultured in 125 mL shaker flasks and were rotating at 125 RPM. The culture was also incubated at 37° C. in a humidified atmosphere with 5% CO2 and 95% air. The culture volume was 40 mL. Two control flasks and two flasks per peptide concentration were sampled at days zero, one, two, three, four, five, and six for viable cell density and antibody determination.
The cultures were inoculated at a density of 2×10^5 cells/mL and were passaged three times (split every three days). On the third passage they were incubated until the decline phase.
Viable cells and dead cells were calculated by trypan exclusion with the Cedex cell counter. The mAb concentrations were determined by immunoturbidity via the IMMAGE 800 nephelometer (Beckman, Coulter, Brea, Calif.). The effects of the Gly-Lys-Gly peptide on antibody secretion by a production cell line was gauged by calculating integral viable density (IVCC), and titer. IVCC was calculated by integrating the areas under the growth curves. Specific antibody productivity was calculated as the antibody production per day (titer) divided by IVCC.

CHO line = assay: Effect of Gly-Lys-Gly on growth and productivity of a CHO line in chemically defined CHO medium; assay type: cell-based, Chinese Hamster; conditions: CHO medium supplemented at the same concentrations as in the SP2/0 test; results not shown
Excerpt: In a previous experiment, a proprietary chemically defined Chinese Hamster Ovary (CHO) medium was supplemented with both the Centocor and Bachem-made peptides at the same concentrations above.

Molecule: Gly-L-Lys-Gly [Bachem-made-peptide]
- viable cell density ([1]; 0.38 g/L peptide in MET1.5, mean of two samples): 2.6×10^6 viable cells/mL
- titer ([1]; 0.76 g/L peptide in MET1.5, rose from 117 mg/L without supplement, mean of two samples): 137 mg/L
- increase in titer (concentration of mAb) ([1]; 1.5 g/L peptide in MET1.5): 34%
- viable cell density and percent viability increases ([1]; 1.5 g/L peptide in MET1.5): could not be observed
- effect on growth and productivity (CHO line): minimal to no effect

Molecule: NCCCC[C@H](NC(=O)CN)C(=O)NCC(=O)O [Centocor-made peptide, Glycyl-L-Lysyl-Glycine] (H-Gly-Lys-Gly-OH)
- viable cell density ([1]; 0.35 g/L peptide in MET1.5, mean of two samples): 2.5×10^6 viable cells/mL
- enhancement of the product yield or viable cell density ([1]; 0.7 g/L peptide in MET1.5): No enhancement
- increase in titer (concentration of mAb) ([1]; 1.4 g/L peptide in MET1.5): 21%
- viable cell density and percent viability increases ([1]; 1.4 g/L peptide in MET1.5): could not be observed
- effect on growth and productivity (CHO line): minimal to no effect

— patent US20070213505A1, “Solution Synthesis of Peptide Cell Growth Stimulators” (priority 2006, published 2007)
